Reference: US8895502B2, “β2-glycoprotein I peptide inhibitors” (Kansas State University Research Foundation, priority 2010, dated 2014)
Entries after “also recorded” stand apart in the source; their conditions may differ. Ends that are not written are not given here.

Assays:
C57Bl/6 mice = experiment: Hemorrhage-induced intestinal damage and inflammation; assay type: in vivo, mouse; settings: 40 uM peptide after blood loss, 2 hours post-hemorrhage
Experimental: After a 1-week acclimatization period, mice were anesthetized using […]. Mice undergoing hemorrhage were subjected to retro-orbital removal of 30% of the calculated blood volume (approximately 0.5 mL) over a 90-second period (Fleming, S. D. et al., J. Surg. Res. 150:196-203 (2008); Hylton, D. J. et al., Shock 34:467-474 (2010); Hylton, D. J. et al., Shock 35: 134-140 (2011)). Volume of blood to be removed was based on animal weight and ranged from […] (body weight in grams×0.025). The determined blood volume was measured in water and marked on both the collection tubes and the capillary tubing used for retro-orbital punctures. This ensured that the correct amount would be withdrawn. A single retro-orbital puncture was sufficient for blood collection. The 2 hour mortality rate was less than 1%. Sham mice were subjected to similar procedures with no blood removal. Mice were randomly assigned to receive 40 uM peptide (80 ng/mouse) in a volume of 80-150 μL, or an equal volume of normal saline. To prevent spontaneous complement activation, all studies were performed in the absence of heparin. At 2 hours post-hemorrhage, mice were euthanized and tissues collected for analysis. Intestinal tissues were formalin fixed for analysis of injury and frozen sections were obtained for immunohistochemistry. […]

B16-F10 mouse melanoma = experiment: B16-F10 melanoma model, tumor growth and vascularization; assay type: in vivo
Experimental: The mouse melanoma cell line, B16-F10 (ATCC CRL-6475), was cultured in DMEM supplemented with 10% fetal bovine serum at 8% CO2 until confluent. C57Bl/6 mice were injected subcutaneously with 2×10^6 cells mixed 1:1 in matrigel (BD Biosciences) and tumor growth was evaluated daily for up to 10 days using calipers. Some mice received 40 μM peptide daily for the first 4 days and then every other day until termination of the study. Control mice received N. saline. At the end of the study, the tumors were dissected and tumor volume determined by saline displacement. Photomicrographs (10×) of representative B16-F10 tumors extracted from C57Bl/6 wildtype mice were taken with a Nikon CoolSnap CF camera and an Olympus SZ61 microscope.
The study was repeated using additional C57Bl/6 mice, which were injected subcutaneously with 2×10^6 cells mixed with matrigel (above) 6-10 days before tumor excision. Peptide treated mice received 40 μM peptide 296Cys-Ser on days 1, 2, 3, 4, 6, and 8 after injection (n=2-5 animals/group) or days 3, 5, 7, 9 or only on days 4, 6, and 8. At the end of the study, the tumors were excised, measured, and volume was determined by aqueous displacement. Tumors were cut in half longitudinally with one half homogenized in Trizol for RNA and the other placed in OCT for histological analysis. Both halves were snap frozen and stored at −80° C. until used.

[1] = system: Fvb/N-Tg(MMTV-PyVT)634Mul/J mice mammary tumors; experiment: Spontaneous breast cancer model, tumor growth; assay type: in vivo, mouse; settings: 40 μM retro-orbital 3 times per week for 7 weeks after palpable tumor
Experimental: Ten […] Fvb/N-Tg(MMTV-PyVT)634Mul/J mice were generously donated by T. A. Nguyen and maintained under 12 h light/dark cycles at Kansas State University, Division of Biology (Manhattan, Kans.). These mice are Her2^+ Estrogen receptor α/β^+, Progesterone receptor^+, p53^+ animal models that spontaneously develop breast cancer. All mice were allowed access to food and water ad libitum and maintained under specific pathogen free conditions. Research was conducted in compliance with the Animal Welfare Act and other federal statutes and regulations relating to animals and experiments involving animals and was approved by the Institutional Animal Care and Use Committee.
Mice were observed 3 times a week until tumors were palpable. Randomly, mice were assigned to receive treatment with N. Saline or peptide 296c-s. Each peptide treated mouse received β2-Glycoprotein 1 Peptide 296c-s (40 μM) by retro-orbital injection three times a week for 7 additional weeks. N. Saline treated mice received the same volume (80 μL) of 0.15M normal saline retro-orbitally three times a week as a control group.
Tumors were measured by hand with calipers three times a week for 7 weeks after the start of injection. After 7 weeks, the mice were briefly anesthetized using isofluorene followed by cervical dislocation euthanization and the tumors were harvested. The tumors were measured volumetrically. […]

CD31 = experiment: Spontaneous breast cancer model, CD31 RNA expression; assay type: in vivo, mouse; settings: mammary tumors, compared to saline treated animals
Experimental: (§1) mRNA was isolated from the tumor samples that were homogenized in Trizol. The concentration of mRNA was evaluated by nanodrop and the purity by bioanalyzer. cDNA was then synthesized using random primers with the Quanta cDNA synthesis kit. RT-PCR was then performed on a 1:100 dilution of cDNA for 18s rRNA. After 3 min denaturing at 95° C., the real-time PCR reaction consisted of 50 cycles (of 10 sec at 95° C., 20 sec at 58° C., and 10 sec at 72° C.), followed by a melt curve increasing at intervals of 0.5° C. from 60° C. to 95° C. RT-PCR was also performed on cDNA samples for CD31 and VEGF which are endothelial markers of angiogenesis. After subtracting 18s Ct values, peptide treated dCt values were normalized to saline treated samples and fold change calculated as ddCt. Primers were obtained from Integrated DNA Technology (Coraville, Iowa) and sequences are in the table below.

VEGF = experiment: Spontaneous breast cancer model, VEGF RNA expression; assay type: in vivo, mouse; settings: mammary tumors, compared to saline treated animals
Experimental: as §1

## H-IHFYSKNKEKKSSYTVEAHSRDGTI-OH [peptide 296Cys-Ser]
C57Bl/6 mice
  hemorrhage-induced inflammation (PGE2 and IL-6 production): significantly lower; also recorded: inhibit
  hemorrhage-induced intestinal damage: significantly lower; also recorded: inhibit
B16-F10 mouse melanoma; 2 mice injected with melanoma cells and peptide
  tumor vascularization (appearance): neither tumor appear vascularized
B16-F10 mouse melanoma; 2 mice injected with melanoma cells and peptide, day 8
  tumor volume, normal saline displaced: 0 to 0.1 mL
B16-F10 mouse melanoma; early treatment (days 1-4, 6, 8)
  animals in which the tumor was either not present or had significantly diminished from the day of injection: 3 of 7
B16-F10 mouse melanoma; mouse, in vivo
  angiogenesis in the B16F10 melanoma model: attenuates angiogenesis
B16-F10 mouse melanoma; repeat study, compared to untreated mice
  tumor growth and volume: significantly decreased
B16-F10 mouse melanoma; treatment on days 1-4, 6, and 8
  tumor growth: attenuated tumor growth; also recorded: prevented growth
B16-F10 mouse melanoma; treatment on days 3, 5, 7, and 9
  tumor growth: attenuated tumor growth
[1]
  percent tumor growth compared to initial measurements: significantly decreased
CD31
  RNA expression of CD31: significantly decreased
VEGF
  RNA expression of VEGF: significantly decreased
